Legend:
PD patients = details: Mizuno et al. 2010; Nutt et al., 2008; cited from earlier work
[1] = system: unilateral 6-OHDA-lesioned rats; test: Video-based behavioural profile analysis (Ethovision) in drug-naive hemi-parkinsonian rats; assay type: in vivo, rat; details: % of the veh-treated rats; for Distance (quantity of movement): Radiprodil 3 mg/kg po, Tozadenant 30 mg/kg po, LD25 ip, LD/BZ 16/4 mg/kg ip; for Adequate body position / Adequate trajectory (gyration radius) / Contra turns (ability to shift direction) / Ipis turns (ability to shift direction): same doses
Description: (§1) The specific behavioural profile of unilateral 6-OHDA-lesioned rats was recorded via 8 cameras connected to a video acquisition system. Rats under treatment were placed freely in a small environment (rotometers, 25×22 cm) or in large open-field (50×40 cm) and the behaviour was video-recorded for 55 minutes (total of 3300 sec). The placement in the small (rotometers) or large (open-field) environment may depend on the test. The rats were filmed from below as described in the section which concerns the rotational activity.
(§2) After the in-live data recordings, the videos are subsequently analyzed by the Ethovision program from (Noldus, version 9.0). The animal and its movements and displacements were defined according to three points (nose, center and tail). The movements, position of the body and, the space occupation, were set-up according to the filter analysis defined with specific criteria and thresholds in the program. Various behavioural parameters were analyzed and only the relevant, i.e. the non-correlated ones, were kept for the final behavioural description.
(§3) The analysis of the other types of behaviours was done with specific parameters selected in the video analysis program (Ethovision 9.0) in order to describe as best as possible the behaviour observed visually and being able to quantify it. The parameters “Distance”, “Counter Clockwise rotations”, “Clockwise rotations”, “Streched” were extracted from the analysis. Additional parameter, the “gyration radius” is calculated from the raw data obtained by the system. • Distance (=“distance”): the total distance moved by the animal (cm) • Counter clockwise (=“ipsilateral turns”): count of the number of 360° turns of ipsilateral rotations in the same sense than that of the lesion. • Clockwise (=“contralateral turns”): count of the number of 360° turns of contralateral rotations in the opposite sense to that of the lesion. • Stretched: (=“adequate body position”): time spent in a position wherein the rat stands on its four paws without any bent position of the trunk. In the program this is the parameter “body elongation” that is used to discriminate the intensity and frequency of the adequate body position. The threshold is fixed at 70%. • Gyration Radius (=“adequate trajectory”): for a specific time interval, average distance between the animal position and its average position within this specific time interval. This parameter reflect the ability of the rats to use the entire space of the arena and is measured in centimeters. Statistical Analysis
Specific behavioural analysis: The five behaviours kept for the thorough behavioural analysis (i.e. distance, contra turns, ipsi turns, adequate body position and adequate trajectory) were analyzed with parametric statistic however if variance homogeneity was not respected for the data (Bartlett's test for equal variances) these latter were analyzed with non-parametric statistics (Kruskal-Wallis). In both case, one-way ANOVA was performed to discriminate the effect of the various treatments on each independent behaviours. Significant differences between means were determined by Tukey post hoc test or Dunn's Multiple Comparison test with p<0.05.
The effects of the oral co-administration of Radiprodil (3 mg/kg, po) with Tozadenant (30 mg/kg, po) on the rat behaviour are compared to the testing of: • 1) these compounds separately • 2) a partially active dose of L-Dopa (25 mg/kg, ip) • 3) a fully active dose of L-Dopa/benserazide (16/4 mg/kg, ip).
The behavioural profile was analyzed in detail with an automated behavioural analysis system based on video recordings (see methods section for the description). In addition, classical measurements (rotometers and actometers) of the behaviour are also used to assess quantity of movements. […]

[2] = system: unilateral 6-OHDA-lesioned rat model of Parkinson's disease; test: General activity (distance travelled, rearing counts) in actometers; assay type: in vivo; details: Radiprodil 3 mg/kg po, Tozadenant 30 mg/kg po; three-way mixed ANOVA, Tukey p<0.05
Description: Subjects: Males Sprague-Dawley rats (Janvier, France), weighing 250-275 g at the time of surgery and 400-450 g at the time of drug testing are used.
On the day of surgery, one week after arrival, rats received unilateral 6-OHDA injection into the right medial forebrain bundle. Each rat was administered with Imipramine HCl (Sigma) 15 minutes before surgery to protect norepinephrinergic (NE) neurons. Rats were anesthetized with Ketamine (Ceva, 75 mg/kg) and Xylazine (Bayer, 10 mg/kg) and placed in stereotaxic frame (David Kopf Instrument). […] Each rat was monitored and handled regularly for 3 weeks to ensure full recovery and acclimation to the experimenters and environment. […]
General activity was recorded within large open-field measuring horizontal and vertical movements and connected to PCs. […] Locomotion was detected and measured by 16 infrared light-beam sensors located on each side of the enclosure at heights of 3 cm. […] Activity counts were recorded by a personal computer. […]
The level of general activity (distance and rearing) measurement in actometers was assessed by three-way mixed ANOVA with the A2A antagonist (2 levels) and the NR2B antagonist (2 levels) as between-group factors and the time as within-subjects factor (6 or 24 levels). […]

[3] = system: hemi-parkinsonian L-Dopa-primed rats; test: Behavioural profile analysis in L-Dopa-primed, fully dyskinetic hemi-parkinsonian rats; assay type: in vivo, rat; details: Radiprodil 3 mg/kg, Tozadenant 30 mg/kg; for Distance, in comparison to the same rats under L-Dopa/benserazide: arrow in cell: increase, decrease or no change vs LD/BZ
Description: as §1, §2
The analysis of the Abnormal Involuntary movement (“AIMs”) was performed with a specific parameter defined in Ethovision 9.0. The parameter “body elongation” was used to discriminate both the intensity and the frequency of dyskinetic (i.e. dystonic) position of the rat.
as §3
Consecutively to that chronic L-Dopa/benzerazide treatment, they show a very high level of contralateral rotations and AIMs at the end of this chronic treatment when tested in the open-field. […] This absence of cross-sensitization on the level of contralateral rotations and AIMs result was entirely unexpected.

[4] = system: unilateral 6-OHDA-lesioned rats; test: Chronic add-on treatment to an active dose of L-Dopa/benserazide (10 acquisition sessions; rotometers and open-field); assay type: in vivo, rat; details: plus L-Dopa 14 mg/kg/benserazide 3.5 mg/kg; in comparison to Tozadenant-treated rats (FIG. 16)
Description: Rotational behaviour was recorded using a home-made computerized system. Rats were fixed in a harness, linked to mechanical sensors that were directly connected to a PC. Each 360° clock-wise or counter clock-wise turn was automatically recorded for up to 240 minutes at the maximum. Throughout the experiments, rats were allocated to individual test cages. Each of 8 clear acrylic chambers (50×40 cm), placed on a level, clear glass bottom, held by a robust frame, could be subdivided into 4 individual square test cages of 25×22 cm. A removable acrylic plate serves as a lid. […] Video sequences were recorded on hard disk for storage and subsequently transferred to PC for analysis and conservation. […]
Data of the acquisition session under treatment with A2A and/or NR2B antagonist plus L-Dopa/benserazide were analyzed by two-way repeated measures ANOVA with chronic session as within-subjects factor (10 session levels). The reliabilities of the between-mean differences were assessed with planned contrasts using an F statistic. […]
Ten acquisition sessions (once/day) of L-Dopa (14 mg/kg)/benserazide (3.5 mg/kg) given in co-administration to veh, Tozadenant, Radiprodil or the combination of both compounds increase progressively the level of L-Dopa-induced contralateral rotations when measured in rotometers (FIG. 15). […]

| SMILES | efficacy in clinical trials in PD patients (PD patients) | Distance (quantity of movement) ([1]; 0-20′) | Adequate body position ([1]; 0-20′) | Adequate trajectory (gyration radius) ([1]; 0-20′) | Contra turns (ability to shift direction) ([1]; 0-20′) | Ipis turns (ability to shift direction) ([1]; 0-20′) | Distance (quantity of movement) ([1]; 30-50′) | Adequate body position ([1]; 30-50′) | Adequate trajectory (gyration radius) ([1]; 30-50′) | Contra turns (ability to shift direction) ([1]; 30-50′) | Ipis turns (ability to shift direction) ([1]; 30-50′) | distance (FIG. 1, right graph) [2] | Adequate body position, in comparison to the same rats under L-Dopa/benserazide ([3]; arrow gives direction vs LD/BZ) [% ↑] | Adequate trajectory, in comparison to the same rats under L-Dopa/benserazide ([3]; arrow gives direction vs LD/BZ) [% ↑] | Contra turns, in comparison to the same rats under L-Dopa/benserazide ([3]; arrow gives direction vs LD/BZ) [% ↓] | No AIMs, in comparison to the same rats under L-Dopa/benserazide ([3]; arrow gives direction vs LD/BZ) [% ↑] | Severe AIMs, in comparison to the same rats under L-Dopa/benserazide ([3]; arrow gives direction vs LD/BZ) [% ↓] | Distance, in comparison to the same rats under L-Dopa/benserazide [3] [% ↓] | level of severe AIMs in larger open-field, chronic add-on [4] |
| --- | --- | --- | --- | --- | --- | --- | --- | --- | --- | --- | --- | --- | --- | --- | --- | --- | --- | --- | --- |
| CCn1c(=O)c2c(nc(/C=C/c3ccc(OC)c(OC)c3)n2C)n(CC)c1=O [KW-6002] | did not show the expected efficacy |  |  |  |  |  |  |  |  |  |  |  |  |  |  |  |  |  |  |
| N[C@@H](Cc1ccc(O)c(O)c1)C(=O)O [LD25, L-dihydroxyphenylalanine] |  | ++ (300-500%) | + (200-300%) | +++ (>500%) | +++ (>500%) | ++ (300-500%) | +++ (>500%) | ++ (300-500%) | +++ (>500%) | +++ (>500%) | ++ (300-500%) |  |  |  |  |  |  |  |  |
| O=C(Nc1ccc2[nH]c(=O)oc2c1)C(=O)N1CCC(Cc2ccc(F)cc2)CC1 [Radiprodil] |  | ++ (300-500%) | ++ (300-500%) | ++ (300-500%) | + (200-300%) | + (200-300%) | + (200-300%) | ++ (300-500%) | ++ (300-500%) | + (200-300%) | + (200-300%) | Significant effect | 5236 | 140 | 16 | 1035 | 7 | 69 | level of severe AIMs is reduced |
| COc1ccc(N2CCOCC2)c2sc(NC(=O)N3CCC(C)(O)CC3)nc12 [Tozadenant, 4-hydroxy-4-methyl-piperidine-1-carboxylic acid (4-methoxy-7-morpholin-4-yl-benzothiazol-2-yl)-amide] |  | + (200-300%) | + (200-300%) | +++ (>500%) | + (200-300%) | + (200-300%) | ++ (300-500%) | ++ (300-500%) | +++ (>500%) | ++ (300-500%) | ++ (300-500%) | Significant effect | 4151 |  | 11 | 948 | 12 | 56 |  |
| C[C@@H]([C@@H](O)c1ccc(O)cc1)N1CCC(O)(c2ccccc2)CC1 [Traxoprodil] | did not show the expected efficacy |  |  |  |  |  |  |  |  |  |  |  |  |  |  |  |  |  |  |

From US9387212B2, “Methods for treating Parkinson's disease” (UCB Pharma S.A., priority 2012, dated 2016)
